The values that follow come from patent publication US20130337579A1, “Methods for Determining Protein Ligand Binding” (UNIVERSITY OF MARYLAND, COLLEGE PARK, priority 2010, published 2013).

The target in one experiment is T1, HisMBP-Alg44PilZ (Pseudomonas aeruginosa, UniProt Q9HY69).
T1 construct: His-MBP-Alg44PilZ was varied from 100 μM to 6 nM; made in house; host or cells: E. coli BL21(DE3)
The experiment in a line: DRaCALA competition of cold nucleotides with 32P-cdiGMP binding to HisMBP-Alg44PilZ. Further details: species or system P. aeruginosa. The note with it: 1 mM cold nucleotide (400-fold molar excess over protein), 4 nM 32P-cdiGMP. As to the method:
FIG. 2. Detection of specific protein-ligand interactions by DRaCALA. (A) DRaCALA images of interactions between purified proteins (20 μM) incubated with 500 nM ^14C-cAMP, 4 nM ^32P-ATP, or 4 nM ^32P-cdiGMP. Protein-ligand mixtures were spotted on nitrocellulose and allowed to dry prior to imaging using a Fuji FLA7100 phosphorimager. Cognate protein-nucleotide combinations are indicated by arrowheads. MBP was used as a negative control. (B) DRaCALA images of competition assays assessing the ability of 1 mM of the indicated cold nucleotides to compete with binding interactions between 4 nM ^32P-cdiGMP and 2.5 μM HisMBP-Alg44PilZ. (C) Graph of fraction bound for each sample in […] with averages indicated by a horizontal bar. NC indicates no competitor. P values were determined by a Student's t-test for significant differences when compared to the no-competitor (NC) control for three independent experiments. For total intensity of each DRaCALA spot in FIGS. 2A and 2B, see Tables 1 and 2, respectively.
Radiolabeled ligands were incubated with each of the proteins and the mixtures were spotted on nitrocellulose. After spreading by capillary action, membranes were dried and quantitated by phosphorimager. […] Each of the radiolabel signals from MBP mixtures was distributed by capillary action (FIG. 2A). […] The specificity of Alg44PilZ binding to cdiGMP was further tested by competition with excess unlabeled nucleotides (400-fold molar excess relative to the Alg44PilZ protein). Alg44PilZ binding to ^32P-cdiGMP was abolished by cdiGMP, but not by cGMP, GMP, GDP, GTP, ATP, CTP or UTP as was previously described (FIG. 2B). The FB for cdiGMP was 0.31±0.07, which was reversed by competition with unlabeled cdiGMP to the background level of 0.04±0.01 (FIG. 2C).
(§1) Protein or whole cell lysates in 1× cdiGMP binding buffer (20 μl) was mixed with 4 nM of radiolabeled nucleotide and allowed to incubate for 10 minutes at room temperature. Radiolabeled nucleotide was competed away by cold nucleotides in concentrations and for times indicated. Purified proteins were tested in technical replicates. Whole cell lysates in FIG. 4 and FIG. 12 were tested in biological triplicates. Whole cell lysates in FIG. 5 were tested in technical replicates. These mixtures were pipetted (2.5-5 μl) onto dry, untreated nitrocellulose (GE Healthcare) in triplicate and allowed to dry completely before quantification. An FLA7100 Fujifilm Life Science Phosphorimager was used to detect luminescence following a 5-minute exposure of blotted nitrocellulose to phosphorimager film. Data was quantified using Fujifilm Multi Gauge software v3.0.

The target of another experiment is E. coli NtrB (Escherichia coli, UniProt P0AFB5). The experiment in a line: DRaCALA binding of radiolabeled nucleotides to purified NtrB. The note with it: 20 μM purified protein; 500 nM 14C-cAMP, 4 nM 32P-ATP or 4 nM 32P-cdiGMP. The method, then: (§2) Radiolabeled ligands were incubated with each of the proteins and the mixtures were spotted on nitrocellulose. After spreading by capillary action, membranes were dried and quantitated by phosphorimager. […] The specificity of Alg44PilZ binding to cdiGMP was further tested by competition with excess unlabeled nucleotides (400-fold molar excess relative to the Alg44PilZ protein).
as §1

The target in the next experiment is T2, E. coli CRP (Escherichia coli, UniProt P0ACJ8).
T2 construct: His; made in house
The experiment in a line: DRaCALA binding of radiolabeled nucleotides to purified CRP. The note with it: 20 μM purified protein; 500 nM 14C-cAMP, 4 nM 32P-ATP or 4 nM 32P-cdiGMP. As to the method:
as §2, §1

The target in experiment [1] is T3, P. aeruginosa Alg44PilZ (His-MBP-Alg44PilZ) (Pseudomonas aeruginosa, UniProt Q9HY69).
T3 construct: His-MBP-Alg44PilZ was varied from 100 μM to 6 nM; made in house; host or cells: E. coli BL21(DE3)
The experiment can be described thus: biochemical. To be noted: 20 μM purified protein; 500 nM 14C-cAMP, 4 nM 32P-ATP or 4 nM 32P-cdiGMP. The experiment is classed as binding.
Text: DRaCALA exploits the ability of nitrocellulose membranes to preferentially sequester proteins over small molecule ligands. When a mixture of protein and radiolabeled ligand is spotted onto a dry nitrocellulose membrane, protein and bound ligand are immobilized at the site of contact while free ligand is mobilized by capillary action with the liquid phase (FIG. 1A). DRaCALA is a rapid assay, as the capillary action can be completed in less than 5 seconds. […] Because capillary action distributes the unbound ligand throughout the mobile phase, the calculation for the fraction bound (FB) can be corrected for this background (see below for edge effects at the solvent front and annulation of the protein). Therefore, FB is defined by the equation in FIG. 1B, where Iinner is the intensity of signal in the area with protein (inner circle) and Itotal is the total signal of the entire sample (outer circle). The Iinner signal consists of both ligand bound to protein and unbound ligand that has not mobilized beyond the area of the inner circle, which we define as Ibackground. Ibackground can be calculated by subtracting the signal intensity of the Iinner from the total ligand Itotal and adjusting for the relative areas of the inner (Ainner) and outer circles (Atotal) (FIG. 1B).
as §2
Kd can be measured by altering either the protein or ligand concentrations in titration experiments; since DRaCALA detects only the ligand mobility, ligand concentrations can be always held constant. […] Since the assay is completed in less than 5 seconds, DRaCALA can also be used to determine the koff for those protein-ligand complexes with slower off rates. koff was determined for cdiGMP and Alg44PilZ by spotting at the indicated time points after the addition of 1 mM unlabeled cdiGMP to a pre-incubated mixture of Alg44PilZ and ^32P-cdiGMP (FIG. 3C). […] Both edge and annulation effects are explained in FIG. 8. The edge effect is due to evaporation of the solvent during the time of the experiment, and is dependent on the humidity of the local environment around the nitrocellulose support. The evaporation results in a smaller total area (Atotal observed in FIG. 8A) and leads to an increased value in the calculated Ibackground. As a secondary correction for the edge effect, the fraction bound determined for spotted ligand in the absence of protein can be subtracted from all samples in parallel (FIG. 8B).

Each structure is given as a SMILES string.

T1 sequence (Q9HY69 16-116): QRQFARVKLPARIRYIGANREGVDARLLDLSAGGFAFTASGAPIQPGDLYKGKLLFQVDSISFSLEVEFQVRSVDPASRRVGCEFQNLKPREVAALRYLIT
T2 sequence (P0ACJ8 whole entry): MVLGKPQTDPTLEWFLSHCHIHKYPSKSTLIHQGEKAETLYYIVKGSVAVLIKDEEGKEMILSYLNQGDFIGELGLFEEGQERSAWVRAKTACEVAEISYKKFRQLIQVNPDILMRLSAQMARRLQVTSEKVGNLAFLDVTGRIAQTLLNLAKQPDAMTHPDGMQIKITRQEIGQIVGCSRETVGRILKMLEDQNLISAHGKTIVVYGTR
E. coli NtrB, sequence (P0AFB5 whole entry): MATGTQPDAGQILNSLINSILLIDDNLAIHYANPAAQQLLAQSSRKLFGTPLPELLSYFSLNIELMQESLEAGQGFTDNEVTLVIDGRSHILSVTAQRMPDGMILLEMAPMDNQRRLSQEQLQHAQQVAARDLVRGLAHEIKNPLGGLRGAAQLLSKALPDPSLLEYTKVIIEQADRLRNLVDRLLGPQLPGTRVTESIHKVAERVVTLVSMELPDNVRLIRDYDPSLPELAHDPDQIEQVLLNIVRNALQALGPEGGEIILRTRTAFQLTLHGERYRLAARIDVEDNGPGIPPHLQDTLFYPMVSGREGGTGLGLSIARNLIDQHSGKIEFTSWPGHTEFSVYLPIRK
T3 sequence (Q9HY69 16-116): as the sequence (Q9HY69 16-116) above

With `Nc1nc2c(ncn2[C@@H]2O[C@H](COP(=O)(O)O)[C@@H](O)[C@H]2O)c(=O)[nH]1` [GMP], on HisMBP-Alg44PilZ, the “Alg44PilZ binding to 32P-cdiGMP abolished by unlabeled nucleotide” value (“Alg44PilZ binding” below) was “not”. For the compound `Nc1ncnc2c1ncn2[C@@H]1O[C@H](COP(=O)(O)OP(=O)(O)OP(=O)(O)O)[C@@H](O)[C@H]1O` [ATP], the “binding to NtrB (sequestration of radiolabel signal)” value at E. coli NtrB is “bound”. Also, the “binding to CRP (sequestration of radiolabel signal)” value on E. coli CRP is reported as “did not bind”. The “binding to Alg44PilZ (sequestration of radiolabel signal)” value in experiment [1] is listed as “not”. In addition, at HisMBP-Alg44PilZ, the “Alg44PilZ binding” value was “not”. Take `Nc1nc2c(ncn2[C@@H]2O[C@H](COP(=O)(O)OP(=O)(O)O)[C@@H](O)[C@H]2O)c(=O)[nH]1` [GDP]: the “Alg44PilZ binding” value at HisMBP-Alg44PilZ is on record as “not”.

On to `Nc1ccn([C@@H]2O[C@H](COP(=O)(O)OP(=O)(O)OP(=O)(O)O)[C@@H](O)[C@H]2O)c(=O)n1` [CTP], for which the “Alg44PilZ binding” value at HisMBP-Alg44PilZ is given as “not”.

As to `O=c1ccn([C@@H]2O[C@H](COP(=O)(O)OP(=O)(O)OP(=O)(O)O)[C@@H](O)[C@H]2O)c(=O)[nH]1` [UTP], at HisMBP-Alg44PilZ, the “Alg44PilZ binding” value was “not”. As for `Nc1nc2c(ncn2[C@@H]2O[C@@H]3COP(=O)(O)O[C@H]3[C@H]2O)c(=O)[nH]1` [cGMP], the “Alg44PilZ binding” value on HisMBP-Alg44PilZ is reported as “not”. On to `Nc1nc2c(ncn2[C@@H]2O[C@H](COP(=O)(O)OP(=O)(O)OP(=O)(O)O)[C@@H](O)[C@H]2O)c(=O)[nH]1` [GTP], for which, at HisMBP-Alg44PilZ, the “Alg44PilZ binding” value is recorded as “not”.
